For one test, the target named is T1, IDO (Homo sapiens, UniProt P14902).
T1 construct: endogenous in cells; host or cells: HeLa cells treated with IFNγ
The test is described as follows: Hela cell-based IDO inhibitory activity test (IFNγ added). As to conditions: Hela cells with IFNγ, 48 hours incubation, OD 480 nm. Put shortly: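 HeLa cells dosed 24 h after seeding with 6 compound concentrations plus IFNγ, then incubated 48 h at 37° C. Supernatant treated with trichloroacetic acid (30 min, 50 °C), then reaction solution added and read at OD 480 nm; parallel luminescent cell viability readout; IC50 derived.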

The target in the next test is T2, hIDO1 (Homo sapiens, UniProt P14902).
T2 construct: expressed in transfected cells; host or cells: HEK293T (293T) cells, transient transfection with Fugene 6
T2 sequence (P14902 whole entry): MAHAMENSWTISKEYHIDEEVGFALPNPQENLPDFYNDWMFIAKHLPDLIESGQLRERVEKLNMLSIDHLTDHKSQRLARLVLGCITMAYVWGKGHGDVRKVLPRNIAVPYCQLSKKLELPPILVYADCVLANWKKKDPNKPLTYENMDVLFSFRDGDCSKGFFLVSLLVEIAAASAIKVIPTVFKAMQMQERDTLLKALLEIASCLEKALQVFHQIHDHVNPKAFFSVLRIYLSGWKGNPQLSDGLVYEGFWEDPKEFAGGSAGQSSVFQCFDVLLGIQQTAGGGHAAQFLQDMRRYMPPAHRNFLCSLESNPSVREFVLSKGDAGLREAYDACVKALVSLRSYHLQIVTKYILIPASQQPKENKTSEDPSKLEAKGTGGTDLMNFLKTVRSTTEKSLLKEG
Briefly: IDO inhibition activity based on HEK293T cells transfected with hIDO1 plasmid. The format is cell-based. Particulars: HEK293T cells transfected with hIDO1, 16 hours incubation, OD 480 nm; read-out: IDO inhibitory activity of HEK293T cells (IC50). The procedure:
1. Test Method for IDO Inhibition Activity Based on HEK293T Cells:
The first step: cell transfection and plating. 5×10^6 293T cells were separately seeded in two T75 flasks and incubated overnight at 37° C. in a 5% CO2 incubator. […] of a mixture containing 1.5 μg of hIDO1 plasmid and 300 μL of opti-MEM was made into a mixture A; 18 μL of liposome fugene 6 was mixed with 300 μL of opti-MEM to prepare a mixture B, and allowed to stand at room temperature for 5 minutes. Mixture A and Mix B were mixed, placed at room temperature for 20 minutes, added to a 293T culture flask, and the other flask was used as a control and incubated overnight at 37° C. in a 5% CO2 incubator. The medium was discarded, digested with trypsin, and after digestion, the cells were neutralized with serum-containing medium, and the cells were blown to cause the cells to fall off. Pipette the cell suspension into a centrifuge tube and centrifuge at a speed of 800-1000 for 1-3 minutes. Aspirate the cell supernatant from the centrifuge tube. Add an appropriate volume of medium to the tube and gently blister to resuspend the cells. Count using a Vi-Cell XR cytometer. Adjust the cell suspension to the appropriate concentration. The cell suspension was added to a white-well 96-well plate at 80 μL/well. The second step: preparation and addition of the compound. Compounds were formulated in DMSO at 600 μM and the compounds were diluted in DMSO according to a multiple of the following table to give 6 concentration gradients of the compound. The 200× compound prepared in DMSO was formulated into a 10× dilution solution in proportion to the corresponding cell culture medium. Add 10 μL of 10× corresponding compound dilution and 10 μL of 10×TRP to each well, except for Min. Incubate for 16 hours in a 37° C. incubator. The third step: detection and analysis. Cell morphology was observed under an inverted microscope. 80 μL of the supernatant was added to a 3894 plate, and 10 μL of 6.1 N trichloroacetic acid was added to each well, shaken for 2 minutes, and placed in a 50-degree incubator for 30 minutes. Centrifuged at 2500 rpm for 10 minutes. Take 70 μL of the supernatant and transfer to a 3635 UV plate, add 70 μL of the reaction solution, and shake for 2 minutes to make the reaction uniform. Use EnSpire (PE) to detect data with an OD of 480 nm. The cell culture plate 3903 was allowed to stand at room temperature for 30 minutes. 100 μL/well of the cell activity detecting reagent was added to the culture plate. Mix on a shaker for 2 minutes to induce cell lysis. The 96-well plate was allowed to stand at room temperature for 10 minutes to stabilize the luminescence signal. Paste the white base film on the bottom of the plate and the plate was tested in Flexstation 3 (the relevant setting is: Illumination, integration time 500 ms). Record the experimental results obtained from the analysis.
The IC50 value is expressed by: A: IC50 value≤10 nM; B: 10 nM<IC50 value≤50 nM; C: 50 nM<IC50 value≤100 nM; D: IC50 value>100 nM.

Structures are written as SMILES.

Experimental findings from patent US11266640B2, “Polycyclic compound acting as IDO inhibitor and/or IDO-HDAC dual inhibitor” (Hangzhou Innogate Pharma Co., Ltd., priority 2017, dated 2022) are described below.

T1 sequence (P14902 whole entry): as above

As for `CC(C(=O)Nc1ccc(C#N)nc1)[C@H]1C[C@H]2C[C@@H](c3ccnc4ccc(F)cc34)C[C@H]2C1` (stereo partly shown) [Compound 72], the IC50 (commonly the concentration needed to halve the response being measured) at IDO is at most 5 nM; on hIDO1 it was at most 10 nM.
As to `C#Cc1ccc(NC(=O)C(C)[C@H]2C[C@H]3C[C@@H](c4ccnc5ccc(F)cc45)C[C@H]3C2)nc1` (stereo partly shown) [Compound 74], the IC50 is at most 5 nM at IDO and 10 to 50 nM on hIDO1.
For `N#Cc1ccc(NC(=O)C2([C@@H]3C[C@H]4C[C@@H](c5ccnc6ccc(F)cc56)C[C@H]4C3)CC2)nc1` [Compound 94] the same measures were at most 5 nM and 10 to 50 nM.
As to `CC(C(=O)Nc1ccc(Cl)cc1)[C@@H]1C[C@H]2C[C@@H](c3ccnc4ccc(F)cc34)C[C@H]2C1` (stereo partly shown) [Compound 4], the results for the IC50 against IDO and on hIDO1 were at most 5 nM and 10 to 50 nM, respectively.
For `CC(C)(C(=O)Nc1ccc(Cl)nc1)[C@H]1C[C@H]2C[C@@H](c3ccnc4ccc(F)cc34)C[C@H]2C1` [Compound 85] the same measures were 5 to 25 nM and at most 10 nM.
For `CC(C(=O)Nc1ccc(Cl)nc1)[C@@H]1C[C@]2(C)C[C@H](c3ccnc4ccc(F)cc34)C[C@]2(C)C1` (stereo partly shown) [Compound 42] the same measures were at most 5 nM and 10 to 50 nM.
The matching figures for `CC(C(=O)Nc1ccc(Cl)cc1)[C@@H]1C[C@@H]2CN(c3ccnc4ccc(F)cc34)C[C@@H]2C1` (stereo partly shown) [Compound 9]: above 100 nM and above 100 nM.
For `O=C(CC1=C[C@H]2C[C@@H](c3ccnc4ccc(F)cc34)C[C@H]2C1)Nc1ccc(Cl)cc1` (racemic) [Compound 57], the IC50 against IDO was at most 5 nM; at hIDO1, 10 to 50 nM.
For `COc1ccc(NC(=O)C(C)[C@H]2C[C@H]3C[C@@H](c4ccnc5ccc(F)cc45)C[C@H]3C2)cn1` (stereo partly shown) [Compound 6] the same measures were 5 to 25 nM and 10 to 50 nM.
With `C/C(C(=O)Nc1ccc(Cl)cc1)=C1\C[C@@H]2C[C@H](c3ccnc4ccc(F)cc34)C[C@@H]2C1` [Compound 68], the IC50 on IDO was at most 5 nM; at hIDO1, at most 10 nM.
With `C#Cc1ccc(NC(=O)C(C)(C)[C@H]2C[C@H]3C[C@@H](c4ccnc5ccc(F)cc45)C[C@H]3C2)cn1` [Compound 87], the IC50 against IDO is at most 5 nM; at hIDO1, at most 10 nM.
